Entries after “also recorded” stand apart in the source; their conditions may differ.
What was measured:
cryoinjured mouse hearts [1] = settings: formulation applied coincident with cryo-infarction; 1 week following the injury; O'Quinn et al., Circulation, 2008; cited from earlier work
NVRM / NCRF aggregates = assay: Mixed aggregate culture of CellTracker-tagged fibroblasts and myocytes; format: cell-based, rat; settings: relative to control aggregates
Description: (§1) FIGS. 4A-4F show ZO-1 regulation of differential adhesion between Cx43 expressing cells. A. Segregation of Cx43-GFP cells from DiI-labeled HeLa Cx43 cells. […] C and D. Cohesion patterns of orange-tagged NVRMs from green-tagged NCRFs following control (top) or ACT1ACT1 (bottom) incubation. […] Scale A=5 um, C, D=25 um.
(§2) In another approach neonatal rat ventricular myocytes (NVRMs) were cultured as monolayers and the propensity of added dispersed NCRFs to adhere to this layer was measured. […] In the second approach, green CellTracker-tagged fibroblasts are mixed with orange CellTracker-tagged myocytes and cultured as aggregates (FIG. 4C,D). […] Disclosed herein, and supported by the disclosed data, the regulation of connexon aggregation via ZO-1 PDZ2 can dynamically adjust the level of differential adhesivity between cells in heterocellular contacts (e.g., fibroblasts and myocytes).

cryoinjured mouse hearts [2] = assay: Arrhythmia induction (S2-S3 premature beat protocol, overdrive pacing) in Langendorff-perfused hearts one week after cryoinjury; format: in vivo
Description: Following cryoinjury by application of 3 mm liquid nitrogen chilled probe hearts in anesthetized mice were treated with a methycellulose patch containing either ˜9 ug of ACT1 peptide, ˜9 ug of reverse control peptide or no peptide (vehicle control). Mice were then allowed to recover for a week. A week following the injury, Langherdorf-perfused hearts from the mice were subject to 2 types of electrical stimulation inducing arrhythmia: a) S2-S3 premature beat protocol and b) Overdrive pacing. Electrical recordings were made and induced arrhythmic behaviors were categorized including delayed after depolarizations, ectopic beats, ventricular tachycardia, and ventricular fibrillation. […] Severity was graded according to the electrical abnormality noted (e.g. ventricular tachycardia was scored lower than ventricular fibrillation) and the persistence of the electrical abnormality (e.g. intermittent tachycardia was scored lower than persistent tachycardia). […] A similar trend is seen in response to overdrive pacing, although in this case the difference between the treatment and controls are not significant at p=0.05. The “All control” group represents pooled reverse and vehicle control counts.

[3] = tested on: neonatal rat ventricular myocytes (NVRMs) monolayers and NCRFs; assay: Adherence of dispersed fibroblasts (NCRFs) to myocyte (NVRM) monolayers; format: cell-based; settings: 48 hr timecourse
Description: as §1, §2

[4] = tested on: Cx43 hemichannel in HeLa Cx43 cells; assay: Connexon channel (hemichannel) function by EtdBr uptake in live cells; format: cell-based
Description: Functional and biochemical assays were used to assess whether the predicted reduction in free-membrane connexons occurs. First, connexon channel (hemichannel) function was assayed using EtdBr uptake in live cells as described by Saez and co-workers. […] In a variant of this experiment, the cells were also cultured at low density such that no GJs could form. Again consistent with the model, in the absence of GJs for free connexons in the membrane to be recruited to, ACT1 had no affect (FIG. 2).

[5] = tested on: HeLa cells expressing wt Cx43; assay: Scrape loading assay of GJ intercellular communication (GJIC); format: cell-based; settings: relative to control and parental non-connexin expressing cells, p<0.05
Source text: It has been previously shown that inhibition of ZO-1 interaction with Cx43 increases GJ size in HeLa Cx43 and increases the proportion of Triton-insoluble-Cx43 in GJs, without altering Cx43 expression levels or turnover (Hunter et al., 2005). Based on this and other data, it was proposed that ZO-1 inhibits the transition from non-junctional and gap junctional Cx43 (Hunter et al. 2005). The question of where ZO-1 exerted this control to this point is unknown. Here, it is disclosed that ZO-1 regulates movement of connexons in the plasma membrane into GJs. FIG. 1 outlines how this works. The model disclosed herein predicts that inhibiting Cx43/ZO-1 interaction will result in an increase in GJ intercellular communication (GJIC) and a complementary decrease of free-membrane connexons. The well-characterized “scrape loading” technique was used to assess GJIC in HeLa cells expressing wt Cx43.

[6] = S2-S3 premature beat protocol, methycellulose patch ~9 ug peptide at cryoinjury, hearts tested a week later
[7] = overdrive pacing, methycellulose patch ~9 ug peptide at cryoinjury, hearts tested a week later

## ACT1: Cx43 CT sequence RPRPDDLEI (SEQ ID NO:1), can be attached to antennapedia sequence: RQPKIWFPNRRKPWKK RPRPDDLEI (SEQ ID NO3) (optionally antennapedia sequence; UniProt P17302 374-382, looked up, fragment)
Cryoinjured mouse hearts [1]
  arrhythmia susceptibility of heart after cryo-infarction to the ventricle: renders the heart refractory to arrhythmia-inducing electrophysiological protocols
NVRM / NCRF aggregates
  exclusion/loss of NCRFs from aggregates: increased exclusion/loss of NCRFs
  segregation of myocytes and fibroblasts in aggregates / cohesion index (% co-localization orange and green) of NVRMs: tend to segregate into cohesive domains of like cells
NVRM / NCRF aggregates; listed as ACT1ACT1
  exclusion/loss of NCRFs from aggregates: Fibroblasts are excluded more
  segregation of myocytes and fibroblasts in aggregates / cohesion index (% co-localization orange and green) of NVRMs: is higher
Cryoinjured mouse hearts [2]; [6]
  S2-S3 Protocol Arrhythmic (numbers of mice displaying an arrhythmia response): 1
  S2-S3 Protocol Stable (numbers of mice): 6
Cryoinjured mouse hearts [2]; [7]
  Overdrive Pacing Arrhythmia (numbers of mice displaying an arrhythmia response): 2
  Overdrive Pacing Stable (numbers of mice): 5
Cryoinjured mouse hearts [2]; severity graded by electrical abnormality and its persistence, patch ~9 ug peptide, a week after cryoinjury
  Arrhythmia Severity Index Mean: 1.71
Cryoinjured mouse hearts [2]; vs controls, chi squares p=0.05 or below
  electrical stability in response to the S2-S3 arrhythmia induction protocol: improved electrical stability
[3]
  adherence of NCRFs to NVRM monolayers: decreased the adherence
[3]; listed as ACT1ACT1
  adherence of NCRFs to NVRM monolayers: reduction in fibroblast (NCRF) adhesion
[4]; cells cultured at low density such that no GJs could form
  hemichannel activity (EtdBr uptake), cells at low density: no affect
[4]; contacting HeLa Cx43 cells, relative to controls and non-connexin expressing HeLa cells, p<0.05
  hemichannel activity (EtdBr uptake): significantly decreases EtdBr uptake; also recorded: decreased hemichannel activity
[5]
  GJ intercellular communication (GJIC): significantly increased GJIC

From US20100286762A1, “Compositions and Methods for Ameliorating Clinical Electrical Disturbances” (MUSC Foundation for Research Development, priority 2009, published 2010)
